Reference: ChEMBL document CHEMBL4342445, “Structurally Diverse Meroterpenoids from a Marine-Derived Aspergillus sp. Fungus” (J Nat Prod, 2020)
The source made the active and inactive calls. No cut-off for these calls is given here.

Target: Acetylcholinesterase (Homo sapiens) (UniProt P22303)
Experiment: Inhibition of human erythrocytes AChE at 50 uM using acetylthiocholine iodide as substrate preincubated for 20 mins followed by substrate addition and measured every 30 secs for 1 hr by spectrophotometry based Ellman's method

Acetylcholinesterase (Homo sapiens), sequence (P22303 whole entry): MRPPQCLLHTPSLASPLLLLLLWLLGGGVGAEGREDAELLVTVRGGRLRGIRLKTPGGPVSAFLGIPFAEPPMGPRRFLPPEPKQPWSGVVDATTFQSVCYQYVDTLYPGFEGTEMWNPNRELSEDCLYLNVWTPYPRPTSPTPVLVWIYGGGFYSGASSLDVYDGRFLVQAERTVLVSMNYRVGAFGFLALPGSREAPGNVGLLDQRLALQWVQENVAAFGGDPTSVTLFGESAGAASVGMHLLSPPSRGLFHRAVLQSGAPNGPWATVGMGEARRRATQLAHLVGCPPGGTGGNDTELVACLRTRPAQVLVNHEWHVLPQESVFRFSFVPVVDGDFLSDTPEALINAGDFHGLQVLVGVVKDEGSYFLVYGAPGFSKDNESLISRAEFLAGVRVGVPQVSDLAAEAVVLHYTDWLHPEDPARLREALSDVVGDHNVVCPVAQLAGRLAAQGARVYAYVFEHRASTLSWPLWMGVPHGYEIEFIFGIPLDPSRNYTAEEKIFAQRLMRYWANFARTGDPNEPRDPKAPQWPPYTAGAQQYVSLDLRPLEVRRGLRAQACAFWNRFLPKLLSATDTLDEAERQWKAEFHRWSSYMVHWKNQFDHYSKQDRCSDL

## C=C1[C@@]2(C(=O)OC)C(=O)[C@H](O)[C@]1(C)CC1=C(C)[C@]3(C=CC(=O)OC3(C)C)CC[C@@]12C
  inhibition: inactive

## C=C1[C@@]2(C)C[C@]3(C)[C@](C)(CC[C@@H]4C(C)(C)OC(=O)C=C[C@]43C)[C@@]13C(=O)O[C@H](C)[C@@]3(O)C2=O
  inhibition: inactive

## C=C1[C@]2(C)C(=O)[C@]3(O)[C@H](C)OC(=O)[C@]13[C@@]1(C)CC[C@@]3(C=CC(=O)OC3(C)C)C(C)=C1[C@@H]2OC(C)=O
  inhibition: inactive

## C=C1[C@@]2(C)CC3=C(C)[C@]4(C=CC(=O)OC4(C)C)CC[C@]3(C)[C@@]13C(=O)O[C@@H](C)[C@@]3(O)C2=O
  inhibition: inactive

## C=C1[C@@]23C(=O)O[C@H](C)[C@@]2(O)C(=O)O[C@]1(C)[C@@H](OC(C)=O)C1=C(C)[C@]2(C=CC(=O)OC2(C)C)CC[C@@]13C
  inhibition: inactive

## C=C1[C@@]2(C)CC3=C(C)[C@]4(C=CC(=O)OC4(C)C)CC[C@]3(C)[C@@]13C(=O)O[C@H](C)[C@@]3(O)C2=O
  inhibition: inactive

## C=C1[C@@]23C(=O)O[C@H](C)[C@]24O[C@@]2(C(=C)[C@]5(C=CC(=O)OC5(C)C)CC[C@]32C)[C@H](OC(C)=O)[C@@]1(C)OC4=O
  inhibition: inactive

## C=C1[C@@]23C(=O)O[C@H](C)[C@]24O[C@@]2(C(=C)[C@]5(CCC(=O)OC5(C)C)C[C@@H](OC(=O)/C(C)=C/C)[C@]32C)[C@H](OC(C)=O)[C@@]1(C)OC4=O
  inhibition: inactive

## C=C1[C@@]2(C)C[C@H]3[C@]4(C)C=CC(=O)OC(C)(C)[C@H]4CC[C@]3(C)[C@]1(C(=O)OC)C(=O)[C@@](C)(O)C2=O
  inhibition: inactive
